# Test results from patent publication US6831080B2, “Cinnamide derivatives as KCNQ potassium channel modulators” (Bristol-Myers Squibb Company, priority 2001, dated 2004).
# Structures can show the parent of a compound that is named as a salt.
# Experiments:
# [1] = system: chlordiazepoxide + amphetamine induced hyperactivity, Sprague Dawley rats; experiment: Mania/bipolar model: chlordiazepoxide + d-amphetamine induced hyperactivity, locomotor activity; assay type: in vivo, rat
# Experimental: Subjects: Female Sprague Dawley rats (Hilltop Lab Animals, Scottdale, Pa.), weighing 150-200 g at the beginning of the experiment, were used in the experiment described in this example. Animals were individually housed in standard shoebox cages and maintained on a 12:12 h light-dark cycle (lights on at 0600). All animals were allowed food and water ad libitum throughout the experimental procedure. Prior to arrival to the testing facility, the rats were anesthetized with vaporized Isoflurane and catheters were surgically implanted into the jugular vein. The catheters were made of silastic medical grade tubing (15 cm long, 0.02″ internal diameter, 0.037″ external diameter), fastened with sutures to muscle near the jugular vein and at the nape of the neck, then sealed with smooth pieces of monofilament that were secured at the nape of the neck.
# Lithium chloride (LiCl), chlordiazepoxide hydrochloride (CDP) and d-amphetamine sulfate (Amph) were obtained from Sigma Chemical Company (St. Louis, Mo.). LiCl was dissolved in a vehicle of isotonic saline and injected intraperitoneally (i.p.) at a dose of 2 mEq/kg. CDP and Amph were dissolved in a vehicle of sterile water (Phoenix Scientific, Inc., St. Joseph, Mo.) and injected subcutaneously (s.c.) at a dose of 12.5 mg/kg and 1.18 mg/kg, respectively. Combination treatment of CDP and Amph represented the s.c. injection of a 1:1 mixture of both compounds at the above referenced doses. Compound of Example 1 was dissolved in dimethylsulfoxide (DMSO) and brought to volume with propylene glycol (PG) such that the final vehicle represented a 4% DMSO/96% PG solution. […]
# Thirty minutes after final s.c. dosing with either CDP+Amph, Amph alone or vehicle, rats were placed in locomotor activity testing apparatus. […] Data were analyzed using a priori planned analyses of variance where an effect was considered significant if p<0.05.
# [2] = system: cortical spreading depression (KCl application), Long-Evans rats; experiment: In vivo electrophysiology: number of cortical spreading depressions produced by KCl application; conditions: 1 mg/kg, i.v., 15 min prior to KCl; rat
# Text: Male Long-Evans rats (300-450 g) were used in the present studies (Harlan). Rats were anesthetized with urethane anesthesia (1.2 g/kg i.p.) and placed in a stereotaxic frame. Under anesthesia a Silastic catheter was placed in the jugular vein of the rats. The skull was exposed using a scalpel. A small hole (approximately 2 mm by 3 mm) was drilled in to the skull rostral to the lambdoid suture using a microdrill and steel burr. The dura was disrupted and a drop of mineral oil was placed in this hole to prevent dehydration of the underlying cortex. Ultimately this hole was used for the application of crystalline KCl (described below).
# Two additional holes were place in the skull unilaterally at 4 and 8 mm rostral to the application hole. Silver wire electrodes were placed in these latter holes and secured to the skull using acrylic cement. A similar silver wire electrode was sutured to the nuchal muscle to serve as a reference electrode. Electrical DC recordings were obtained using a standard differential amplifier (Warner, DP-304) and commercially available data acquisition equipment (Cambridge Electronic Design, 1401 A-D converter and Spike2 software).
# All experimental procedures were conducted while the rats were maintained under anesthesia. Rats were injected with test compound, valproic acid or vehicle (100% PEG-400) 15 min prior to the application of crystalline KCl to the application site described above. All injections were given via the jugular vein at a volume of ≦0.5 ml/kg. Only one treatment was tested per animal. The effect of valproic acid was also determined in this study due to the fact that Depakote™ (divalproex sodium) is one of only three drugs currently indicated for the prophylatic treatment of migraine headache. Valproic acid (30-200 mg/kg i.v.) was obtained from Sigma Chemical Company and was dissolved in a vehicle of isotonic saline.
# KCl was applied to the application site for 10 min and was then removed using a saline soaked cotton swab. Mineral oil was subsequently reapplied to the application site. Typically, this application produced a long-lasting series of spreading depressions. The number of spreading depressions produced by this KCl application was the primary measure used to access the effectiveness of compounds in this assay.
# Data were analyzed using analyses of variance followed by the Dunnett post-hoc test for pairwise comparisons, when appropriate. A difference was considered significant when p≦0.05.
# The effect of representative compounds of Formula I on spreading depression is expressed as the percent reduction from vehicle control and is listed in Table 3.
# [3] = system: nerve injury-induced tactile allodynia (L5/L6 ligation), Sprague Dawley rats; experiment: Chung model of neuropathic pain (Chung surgery and von Frey test); assay type: in vivo, rat; conditions: 3 mg/kg, i.v., von Frey thresholds over 90 min
# Experimental: To test agents for activity against peripheral mononeuropathy nerve injury-induced tactile allodynia, male Sprague Dawley rats (wt. 120-160 g) were surgically prepared with unilateral tight ligation of spinal nerves L5 and L6 following the method of Kim and Chung (Kim S. H., Chung J. M. (1992) Pain, September;50(3):355-63). After 3-4 weeks recovery, paw withdrawal to light touch was assessed as described by Chaplan et al. (Chaplan S. R., et al., (1994) J. Neurosci Methods, July;53(1):55-63). In brief, rats are placed in a plastic cage with a wire mesh bottom and allowed to acclimate for 15-30 minutes, until cage exploration and grooming stops. The plantar surface of each hind paw is touched with a series of von Frey hairs with varying stiffness requiring a known force to buckle to determine the nociceptive threshold. Adult male Sprague Dawley rats (avg. wt. 340 g) were tested in the present study. After acclimation, baseline von Frey thresholds were assessed for the injured hindpaw at −15 min. All test compounds were delivered at 0 min by the intravenous (i.v.) route in a volume of 0.5-2 ml/kg. The vehicle for test compounds was 100% PEG-400. For gabapentin the vehicle was deionized H2O. Animals were tested in one of the following 4 treatment conditions: (a) PEG400, (b) gabapentin (Neurontin) 100 mg/kg, (c) test compounds 3 mg/kg and (d) test compounds 10 mg/kg. Following drug administration, von Frey thresholds are measured at 15, 30, 60 and 90 min. Data were analyzed by a 2-way repeated measures analysis of variance followed by Dunnett's test (p<0.05). Experimenters were kept blind to the treatment condition of rats they tested.
# Reversal of neuropathic pain behavior may be expressed as a percentage (0-100%) of the maximum possible effect, over and above the vehicle effects. Specifically, drug effects can be described in terms Δ% MPE according to the following equation: [formula]
# AUCdrug=area under the curve for von Frey thresholds of the drug-treated group;
# AUCvehicle=area under the curve for von Frey thresholds in the vehicle group;
# Time=duration of post-drug testing period (90 min); and
# Max=maximum von Frey threshold (15 g).
# For example, a compound which immediately reversed neuropathic pain behavior to normal levels, such that animals only responded to the highest von Frey filament (15 g), and maintained normal levels through out the post-drug testing period (90 min) would be calculated as Δ% MPE=100%.
# mKCNQ2 channels = molecular target: T1, mKCNQ2 channels (Mus musculus, UniProt Q9Z351); experiment: Whole-cell patch-clamp, HEK 293 stable cell line expressing mKCNQ2 channels; assay type: cell-based; conditions: HEK 293 mKCNQ2, Hill fit
# T1 construct: expressed in transfected cells
# Experimental: Whole-cell patch-clamp recordings were made from an HEK 293 stable cell line expressing mKCNQ2 channels, maintained in culture for 1-2 days. Patch pipettes had initial resistances of 2.5-4 MΩ. Currents were recorded with an EPC-9 amplifier (HEKA, Lambrecht, Germany) controlled with software (Pulse, HEKA) run on a standard lab PC. Series resistance compensation was used during current recording, and set at 80%. The series resistance (R) and cell capacitance (C) were determined electronically by subtracting the capacitive currents at the onset and offset of a 5 mV voltage step. The cancellation of whole-cell capacitance transients was virtually complete in all cells. Analog current signals were low-pass filtered at 2.9 kHz using a four-pole Bessel filter −3 dB) and stored on a local network server computer at a sampling rate of […]. All recordings were performed at room temperature (20-22° C.). The pipette solution contained (mM): KCl, 150; CaCl2, 2.5; EGTA, 5; MgCl2, 1; HEPES, 10; pH to 7.3 with KOH, and Osmolality of 290-300 mOsm. The extracellular solution contained (mM): NaCl, 140; KCl, 2.5; CaCl2, 2.5; MgCl2, 1; glucose, 10; HEPES, 10; pH to 7.3 with NaOH, and Osmolality of 305-310 mOsm
# Concentration response data were generated by measuring the difference in the steady-state amplitude of current in the presence of compound at the end of a 600 ms voltage-clamp step from a holding potential of −80 mV. The concentration-response data were fitted with Hill-type equations: […]
# where I is the steady-state current at a given concentration of agonist [A]; and Imax, EC50 and nH are parameters estimated from the curve fit. In some cases the concentration-response data were fitted with equations consisting of the sum of two Hill-type components. Current-voltage (I/V) relationships for agonist-evoked currents were obtained by performing 600 ms voltage steps (−110 mV to +40 mV) in the absence and presence of agonist.
# [4] = system: streptozoticin-induced tactile allodynia, Sprague Dawley rats; experiment: Diabetic model of neuropathic pain (streptozoticin and von Frey test); assay type: in vivo, rat; conditions: 10 mg/kg, i.v.; von Frey thresholds over 90 min; STZ diabetic model
# Experimental: To test agents for activity against systemic polyneuropathy nerve injury-induced tactile allodynia, animals were treated with streptozoticin (STZ) to create a diabetic condition by selective cytotoxic action upon pancreatic β-islet cells that produce insulin following the method of Courteix, et al. (Courteix C., et al., (1993) Pain, April;53(1):81-8). In brief, male Sprague Dawley rats (wt. 200-275 g) received an injection of STZ (75 mg/kg, i.p.) and diabetes was confirmed three weeks after STZ injection by measurement of tail vein blood glucose levels. After 3-4 weeks, paw withdrawal to light touch was assessed as described by Chaplan et al. (Chaplan S. R., et al., (1994) J Neurosci Methods, July;53(1):55-63). In brief, rats are placed in a plastic cage with a wire mesh bottom and allowed to acclimate for 15-30 minutes, until cage exploration and grooming stops. The plantar surface of each hind paw is touched with a series of von Frey hairs with varying stiffness requiring a known force to buckle to determine the nociceptive threshold. Adult male Sprague Dawley rats (avg. wt. 300 g) were tested in the present study. After acclimation, baseline von Frey thresholds were assessed for the injured hindpaw at -15 min. All test compounds were delivered at 0 min by the intravenous (i.v.) route in a volume of 0.5-2 ml/kg. […] Animals were tested in one of the following 4 treatment conditions: […] Following drug administration, von Frey thresholds are measured at 15, 30, 60 and 90 min. Data were analyzed by a 2-way repeated measures analysis of variance followed by Dunnett's test (p<0.05). Experimenters were kept blind to the treatment condition of rats they tested. […] Specifically, drug effects can be described in terms Δ% MPE according to the following equation: {[…] under the curve for von Frey thresholds of the drug-treated group; AUCvehicle=area under the curve for von Frey thresholds in the vehicle group; Time=duration of post-drug testing period (90 min); and Max=maximum von Frey threshold (15 g).
# T1 sequence (Q9Z351 whole entry): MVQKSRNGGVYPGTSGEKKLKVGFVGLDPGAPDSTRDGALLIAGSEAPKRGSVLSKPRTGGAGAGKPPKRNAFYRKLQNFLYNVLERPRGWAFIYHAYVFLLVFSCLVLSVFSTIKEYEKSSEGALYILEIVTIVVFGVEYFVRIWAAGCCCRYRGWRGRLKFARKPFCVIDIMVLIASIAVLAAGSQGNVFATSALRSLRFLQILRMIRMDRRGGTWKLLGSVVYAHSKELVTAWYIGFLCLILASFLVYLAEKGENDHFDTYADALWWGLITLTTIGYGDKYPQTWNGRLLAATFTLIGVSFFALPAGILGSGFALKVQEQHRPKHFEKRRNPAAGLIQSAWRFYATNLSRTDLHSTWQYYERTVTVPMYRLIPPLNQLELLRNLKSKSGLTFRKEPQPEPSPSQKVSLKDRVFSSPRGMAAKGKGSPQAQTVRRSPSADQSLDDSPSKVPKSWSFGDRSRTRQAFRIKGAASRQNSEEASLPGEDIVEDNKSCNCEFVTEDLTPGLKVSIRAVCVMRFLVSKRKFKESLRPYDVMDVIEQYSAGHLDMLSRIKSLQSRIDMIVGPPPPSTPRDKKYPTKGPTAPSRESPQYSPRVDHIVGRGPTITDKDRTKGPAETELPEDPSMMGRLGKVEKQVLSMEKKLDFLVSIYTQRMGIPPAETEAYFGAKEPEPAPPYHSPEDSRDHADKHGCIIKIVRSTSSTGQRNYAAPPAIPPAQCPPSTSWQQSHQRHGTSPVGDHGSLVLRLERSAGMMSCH
smiles,measurement,setting,value
C[C@H](NC(=O)/C=C/c1ccc(F)cc1)c1ccc2ccccc2c1 [Compound of Example 1],Horizontal Activity Counts,"[1]; 5 mg/kg i.v. 45 minutes pre-test, then chlordiazepoxide + d-amphetamine, first 10 minutes of testing","7,859.2 + 661.21 counts"
same,Effect on augmentation of locomotor scores produced by the combination treatment,"[1]; 5 mg/kg i.v. 45 minutes pre-test, F(1,16)=10.4, p=0.005",significantly prevented
"C[C@H](N)Cc1ccccc1 [d-amphetamine, d-amphetamine sulfate, reference compound]",Horizontal Activity Counts,"[1]; rat, in vivo","8,772.3 + 426.02 counts"
"C[C@H](NC(=O)/C=C/c1cc(F)ccc1F)c1cccc(N2CCOCC2)c1 [Example 90, (S)-3-(2,5-Difluoro-phen-yl)-N-[1-(3-morpho-lin-4-yl-phenyl)-eth-yl]-acrylamide]","% Reduction (number of spreading depressions, from vehicle control)",[2],"37 (1 mg/kg, i.v.) %"
same,AUC (Δ% MPE),[3],"13 (3 mg/kg, i.v.) Δ% MPE"
same,EC50,mKCNQ2 channels; @ −40 mV,1.2 µM
same,Emax,"mKCNQ2 channels; HEK293, read-out: Imax (%)",523%
same,AUC (Δ% MPE),[4],"56 (10 mg/kg, i.v.) Δ% MPE"
